Test results taken from patent US7915242B2, “Vitamin D receptor antagonists and their use in treating asthma” (Wisconsin Alumni Research Foundation, priority 2004, dated 2011).
“Also recorded” adds a separate entry of the source.

Columns and labels:
[1] = tested on: Human promyelocytic leukemia (HL60) cells; assay: HL-60 cellular differentiation test (NBT reduction); format: cell-based; settings: relative to 1α,25-dihydroxyvitamin D3; FIGS. 2-3
Experimental: The compounds of the invention are/were dissolved in ethanol and the concentrations are/were determined using UV spectrophotometry. Serial dilutions are/were prepared so that a range of drug concentrations can be tested without changing the final concentration of ethanol (≦0.2%) present in the cell cultures.
Antagonism is/was tested by adding a combination of 1,25(OH)2D3 and the putative antagonist in the same well keeping the final ethanol concentration the same.
Human promyelocytic leukemia (HL60) cells are/were grown in RPMI-1640 medium containing 10% fetal bovine serum. The cells are/were incubated at 37° C. in the presence of 5% CO2.
HL60 cells are/were plated at 1.2×10^5 cells/mL. Eighteen hours after plating, cells in duplicate are/were treated with compound of the invention in ethanol. Four days post-dose, the cells are/were harvested and a nitro blue tetrazolium reduction assay is/was performed (Collins et al., J. Exp. Med. 149, 969-974, Appendix A (1979)). The percentage of differentiated cells is/was determined by counting a total of 200 cells and recording the number that contained intracellular black-blue formazan deposits. Verification of differentiation to monocytic cells is/was determined by measuring phagocytic activity. All drug concentrations are/were tested in duplicate.

[2] = target: T1, full-length recombinant rat vitamin D receptor (Rattus norvegicus, UniProt P13053); assay: Vitamin D receptor binding assay, competition with [3H]-1,25(OH)2D3; settings: relative to 1α,25-dihydroxyvitamin D3; FIG. 1
T1 construct: Full-length recombinant rat receptor is/was expressed in E. coli BL21(DE3) Codon Plus RIL cells; histidine tag (C); made in house; host or cells: E. coli BL21(DE3) Codon Plus RIL
T1 sequence (P13053 1-423): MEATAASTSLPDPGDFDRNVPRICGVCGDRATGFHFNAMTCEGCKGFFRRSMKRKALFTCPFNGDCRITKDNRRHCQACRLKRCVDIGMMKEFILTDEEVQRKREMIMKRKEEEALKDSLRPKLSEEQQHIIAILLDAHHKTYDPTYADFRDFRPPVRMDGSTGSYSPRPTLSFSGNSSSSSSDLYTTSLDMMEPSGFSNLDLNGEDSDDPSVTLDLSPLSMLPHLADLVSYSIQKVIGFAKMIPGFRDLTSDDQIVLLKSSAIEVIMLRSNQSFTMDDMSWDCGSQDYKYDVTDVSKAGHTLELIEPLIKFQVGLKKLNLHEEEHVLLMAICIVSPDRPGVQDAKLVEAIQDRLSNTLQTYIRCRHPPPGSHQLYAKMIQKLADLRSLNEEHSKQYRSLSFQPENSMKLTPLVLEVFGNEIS
From the text: Full-length recombinant rat receptor is/was expressed in E. coli BL21(DE3) Codon Plus RIL cells and purified to homogeneity using two different column chromatography systems. The first system is/was a nickel affinity resin that utilizes the C-terminal histidine tag on this protein. The protein that is/was eluted from this resin is/was further purified using ion exchange chromatography (S-Sepharose Fast Flow). Aliquots of the purified protein are/were quick frozen in liquid nitrogen and stored at −80° C. until use. For use in binding assays, the protein is/was diluted in TEDK50 (50 mM Tris, 1.5 mM EDTA, pH 7.4, 5 mM DTT, 150 mM KCl) with 0.1% Chaps detergent. The receptor protein and ligan concentration is/was optimized such that no more than 20% of the added radiolabeled ligand is/was bound to the receptor.
Unlabeled ligands are/were dissolved in ethanol and the concentrations determined using UV spectrophotometry (1,25(OH)2D3: molar extinction coefficient=18,200 and λmax=265 nm; Analogs: molar extinction coefficient=42,000 and λmax=252 nm). […]
Radiolabeled and unlabeled ligands are/were added to 100 mcl of the diluted protein at a final ethanol concentration of ≦10%, mixed and incubated overnight on ice to reach binding equilibrium. […] Total binding is/was determined from the tubes containing only radiolabeled ligand.

[3] = tested on: vitamin D 24-hydroxylase (CYP24) promoter luciferase reporter; assay: Competition for transcription activity, analog plus 1,25(OH)2D3 in the reporter gene assay; format: cell-based; settings: with 1α,25-dihydroxyvitamin D3; FIGS. 5-6
Experimental: Antagonism is/was tested by adding a combination of 1,25(OH)2D3 and the putative antagonist in the same well keeping the ethanol concentration the same.
The third test that is performed is competition for transcription activity. Again, the ROS-17/2.8 osteoblast cells that contain the reporter gene system described above are employed. A dose-response curve is constructed with 1α,25-(OH)2D3 and another 1α,25-(OH)2D3 dose response curve is prepared with increasing concentrations of antagonist or analogs of the invention. Analogs that prevent 1α,25-(OH)2D3-induced transcription, are defined using this technique as either weak agonist or a complete antagonist of the VDR for 1α,25-(OH)2D3.

Sprague-Dawley rats [4] = assay: Bone calcium mobilization (serum calcium); format: in vivo, rat; settings: four ip doses, even at 2,900 pmol/day, FIG. 7
Experimental: (§1) Male, weanling Sprague-Dawley rats are/were placed on Diet 11 (0.47% Ca) diet +AEK for one week followed by Diet 11 (0.02% Ca) +AEK for 3 weeks. The rats are/were then switched to a diet containing 0.47% Ca for one week followed by two weeks on a diet containing 0.02% Ca. Dose administration began during the last week on 0.02% calcium diet. Four consecutive ip doses are/were given approximately 24 hours apart. Twenty-four hours after the last dose, blood is/was collected from the severed neck, and the concentration of serum calcium is/was determined as a measure of bone calcium mobilization. The first 10 cm of the intestine is/was also collected for intestinal calcium transport analysis using the everted gut sac method.
(§2) Antagonism is/was tested by administering a combination of 1,25(OH)2D3 and the putative antagonist to the animal simultaneously.

Sprague-Dawley rats [5] = assay: Intestinal calcium transport (everted gut sac); format: in vivo, rat; settings: four ip doses, FIG. 8
Experimental: as §1, §2

[6] = tested on: vitamin D 24-hydroxylase (CYP24) promoter luciferase reporter; assay: Reporter gene assay, CYP24 promoter-luciferase in ROS-17/2.8 osteoblast cells; format: cell-based; settings: Ros17/2.8 (bone) cells; FIG. 4
From the text: A reporter gene assay is/was used in which the promoter to the vitamin D 24-hydroxylase, i.e. CYP24 is/was placed in front of a luciferase reporter and is/was permanently transfected into ROS-17/2.8 osteoblast cell cultures as previously described (see Arbour, N. C., T. K. Ross, C. Zierold, J. M. Prahl, and H. F. DeLuca. A Highly Sensitive Method for Large-Scale Measurements of 1,25-Dihydroxyvitamin D. Analyt. Biochem. 255, 148-154, (1998) which is hereby incorporated by reference in its entirety and for all purposes as if fully set forth herein). These cells are/were grown to almost confluency at which time the analog or the standard 1α,25-(OH)2D3 is/was added. After 4 hours of incubation, the cells are/were ruptured and luciferase is/was measured by the methods provided by the Promega Kit. These experiments show the level of activity of the vitamin D analogs of the invention at transcription.
The phrase “RLU” refers to relative luciferase units.

Brown Norway rats = assay: Ovalbumin-induced allergic asthma, BALF cell counts; format: in vivo, rat; settings: aerosolized 500 ng/Kg on Days 14 and 16
Experimental: 6-7 week old Brown Norway male rats were obtained from Harlan Sprague-Dawley (Madison, Wis.) and housed in shoebox cages. Animals were provided a purified rodent diet prepared in-house containing 0.47% calcium and 0.3% phosphorus, and water ad libitum. The diet was supplemented with 1.6 IU vitamin D3/g. Rats were sensitized on Days 0 and 7 with a 1 mL intraperitoneal (I.P.) injection of 1 mg/mL OVA in phosphate-buffered saline (PBS) precipitated 1:1 with Imject Alum (PIERCE, IL). Control animals were sensitized with PBS. The animals were then challenged with aerosolized OVA [1% (w/v)] or aerosolized PBS (control) on Days 14 and 16. This OVA-sensitization and -challenge protocol has been used extensively to generate asthma symptoms in rats. Aerosolized-PBS (200 μL) or aerosolized-OVA (200 μL) was delivered by using the Microsprayer Syringe Model 1C (PennCentury, Philadelphia, Pa.). Aerosolized-vehicle [aqueous solution containing 30% (v/v) propylene glycol and 5% ethanol], or aerosolized-1,25(OH)2D3 (500 ng/Kg of body weight) was administered on Days 14 and 16. There were 4 groups in the study. Group 1: Sensitized and challenged with PBS, no treatment. Group 2: Sensitized and challenged with OVA, no treatment. Group 3: Sensitized and challenged with OVA, vehicle treatment on Days 14 and 16. Group 4: Sensitized and challenged with OVA, 1,25(OH)2D3 treatment on Days 14 and 16. At the end of the study, 17 days after the first I.P. injection, lungs were lavaged five times with 5 mL/each of calcium- and magnesium-free PBS containing 0.05 mM EDTA (ethylenediamine tetraacetic acid). The lavage fluid was centrifuged at 1,000×g for 10 minutes. The supernatant was removed, and the cell pellet was resuspended in 1 mL cold PBS. Total cell counts in bronchoalveolar lavage fluid (BALF) was performed using a hemocytometer. Slides of BALF were prepared by cytospin-2 cytocentrifugation of an aliquot of the cell suspension, and a differential cell count to determine the number of leukocytes was performed after staining with Diff-Quick (IMED, Inc., CA).

BALBc mice = assay: Asthma model, ovalbumin-sensitized mice; format: in vivo, mouse; settings: preliminary work
Experimental: The fourth test performed on the analogs is treatment using an asthma model. For this test, BALBc mice are injected for 7 days with 10 micrograms of ovalbumin together with alum to sensitize the animals. These are given by intraperitoneal injection and at the end of 7 days, the asthmatic reaction to an inhaled dose of ovalbumin is examined. In this test, the ovalbumin as a 0.2% solution is delivered by nebulizer to the mouse. Air flow measures are carried out as described by Isenberg-Feig et al. in Current Allergy and Asthma Reports, 3:70-78 (2003) which is hereby incorporated by reference in its entirety and for all purposes as if fully set forth herein. Furthermore, the lungs are removed and sectioned for analysis. The degree of invasion of eosinophils into the bronchial tissue is used as a non-subjective measurement of asthmatic response. After the animals are sensitized and given the expected responses to ovalbumin, the animals are subjected to an aerosol that includes either a vitamin D antagonist of the invention or 1α,25-(OH)2D3. After exposure to the vitamin D antagonist of the invention or the 1α,25-(OH)2D3, the animals will be exposed to a nebulized dose of 0.2% ovalbumin. The presence of the antagonist will be found to block the asthmatic response to the inhaled ovalbumin. […]

mouse model of asthma = settings: Matheu et al., J Allergy Clin Immunol 112:585, 2003; cited from earlier work

C=C1[C@H](O)CC(=C/C=C2\CCC[C@]3(C)[C@@H]([C@H](C)/C=C/[C@@H](O)C4(C(=O)OCCCC)CC4)CC[C@@H]23)C[C@H]1O [OU-72, (22E)-(24R)-25-carbobutoxy-2-methylene-26,27-cyclo-22-dehydro-1α,24-dihydroxy-19-norvitamin D3]
induction of differentiation of HL-60 cells [1]: less active than 1α,25-dihydroxyvitamin D3 | binding to the vitamin D receptor (competition with [3H]-1,25-(OH)2-D3) [2]: approximately equal to the native hormone | antagonistic activity on transcription when administered along with the native hormone [3]: shows antagonistic activity | bone calcium mobilization (calcemic activity) (Sprague-Dawley rats [4]): no calcemic activity | intestinal calcium transport (Sprague-Dawley rats [5]): retain the ability to elevate intestinal calcium transport | in vitro transcription activity (reporter gene) [6]: active in stimulating transcription

C=C1[C@H](O)CC(=C/C=C2\CCC[C@]3(C)[C@@H]([C@H](C)/C=C/[C@@H](OCCCC)C4(C(=O)OCCCC)CC4)CC[C@@H]23)C[C@H]1O [CN-67, (22E)-(24R)-24-butoxy-25-carbobutoxy-2-methylene-26,27-cyclo-22-dehydro-1α-hydroxy-19-norvitamin D3]
induction of differentiation of HL-60 cells [1]: less active than 1α,25-dihydroxyvitamin D3 | binding to the vitamin D receptor (competition with [3H]-1,25-(OH)2-D3) [2]: significantly less active than 1α,25-dihydroxyvitamin D3 | antagonistic activity on transcription when administered along with the native hormone [3]: appears to exhibit antagonistic activity | in vitro transcription activity (reporter gene) [6]: does not appear to be active in causing transcription

C=C1/C(=C\C=C2/CCC[C@]3(C)[C@@H]([C@H](C)CCCC(C)(C)O)CC[C@@H]23)C[C@@H](O)C[C@@H]1O [1,25(OH)2D3, 1α,25-dihydroxycholecalciferol]
total cell counts in BALF after OVA challenge (Brown Norway rats; FIG. 9): reduced; also recorded: inhibits the OVA (ovalbumin)-mediated increase in total number of cells in BALF | number of eosinophils in BALF after OVA challenge (Brown Norway rats; FIG. 11): increased OVA-induced eosinophils recruitment; also recorded: increases the OVA-induced eosinophils count in BALF compared to the control | number of macrophages in BALF after OVA challenge (Brown Norway rats; versus control (PBS), FIG. 10): decreased the number of macrophages; also recorded: decreases the number of macrophages compared to the control | severity of the asthmatic response to ovalbumin (BALBc mice): increases the severity of the asthmatic response to ovalbumin | asthma symptoms in a mouse model of asthma (mouse model of asthma): both triggers and exacerbates asthma symptoms
